In patent US20200138854A1, “Method of Detecting and Quantifying Bile Acid from Saliva” (Ironwood Pharmaceuticals, Inc., priority 2017, published 2020):
“And” between values parts separate entries of the source, which are not always exact repeats. Equal entries are not always repeated.

What was measured:
[1] = Long-term (1 month at −20° C. and −80° C.) stability in untreated human saliva; conditions: nominal 80.0 ng/mL; for Fresh QCs (Batch 34) Mean at Time Zero, QC-High / Concentration QC-High: untreated human saliva; for % Bias QC-High / % CV QC-High / Difference from Fresh (%) QC-High / Mean concentration QC-High / Concentration QC-High: 1 month; for Mean concentration QC-High: n 3; for Concentration QC-High: Run 35, replicate
Method: For long-term stability in untreated human saliva, samples were prepared by spiking untreated human saliva with each analyte at the QC-Low and QC-High levels. The samples were stored in a −20° C. freezer and in a −80° C. freezer. After 1 month of storage, each sample was extracted in replicates of three for analysis.
A 100-μL aliquot of sample (calibration standards, quality controls, blanks, and stability samples) was transferred into a 96 well plate, according to a pre-defined layout. […] The plates were covered, vortex-mixed and then centrifuged for 5 minutes at 3200 rpm. Supernatants (350 μL each) were transferred into the corresponding wells of a clean 96 well plate and evaporated to dryness under nitrogen in a Turbovap set to 40° C. The dried residue in each well was reconstituted with 75 μL of 50:50 (v:v) methanol:water.

[2] = Frozen (−20° C.) short-term stability in cholestyramine-treated human saliva; conditions: for % Bias QC-LLOQ / % CV QC-LLOQ / Concentration QC-LLOQ / Mean concentration QC-LLOQ: nominal 0.500 ng/mL; for Concentration QC-LLOQ / Concentration QC-Mid / Concentration QC-High: Run 33, cholestyramine-treated human saliva, replicate; for Mean concentration QC-LLOQ / Mean concentration QC-Mid / Mean concentration QC-High: n 4; for % Bias QC-Mid / % CV QC-Mid / Concentration QC-Mid / Mean concentration QC-Mid: nominal 8.00 ng/mL; for % Bias QC-High / % CV QC-High / Concentration QC-High / Mean concentration QC-High: nominal 80.0 ng/mL
Method: Quality control samples for the evaluation of accuracy and precision and for run acceptance were prepared on the day of sample extraction. QC samples prepared in cholestyramine-treated saliva are to be prepared in small volumes for analysis. Stability for these QC samples would be limited to short-term storage (i.e., 2 days) whereas untreated human saliva would be evaluated for long-term storage.
For stability in cholestyramine-treated human saliva, samples were prepared by spiking cholestyramine-treated human saliva with each analyte at the QC-LLOQ, QC-Low, QC-Mid and QC-High levels. The samples were stored in a −20° C. freezer. After 1 day and 2 days of storage, each sample was extracted in replicates of four for analysis.

For `C[C@H](CCC(=O)NCCS(=O)(=O)O)[C@H]1CC[C@H]2[C@@H]3[C@H](O)C[C@@H]4C[C@H](O)CC[C@]4(C)[C@H]3CC[C@]12C` [Taurochenodeoxycholic Acid, Taurochenodeoxycholic acid], the “Fresh QCs (Batch 34) Mean at Time Zero, QC-High” value ([1]; reference for −20° C. Storage) was 84.5 ng/mL, the “Fresh QCs (Batch 34) Mean at Time Zero, QC-High” value ([1]; reference for −80° C. Storage) was 84.5 ng/mL and the “% Bias QC-High” value ([1]; −20° C. Storage) was 1.0%. The “% CV QC-High” value ([1]; −20° C. Storage) was 2.5%, the “Difference from Fresh (%) QC-High” value ([1]; −20° C. Storage) was −4.3% and the “Mean concentration QC-High” value ([1]; −20° C. Storage) was 80.8 ng/mL. The “Concentration QC-High” value ([1]; −20° C. Storage) was 79.1 ng/mL and 83.0 ng/mL and 80.4 ng/mL, the “% Bias QC-High” value ([1]; −80° C. Storage) was 1.0% and the “% CV QC-High” value ([1]; −80° C. Storage) was 4.7%. The “Difference from Fresh (%) QC-High” value ([1]; −80° C. Storage) was −4.3%, the “Mean concentration QC-High” value ([1]; −80° C. Storage) was 80.8 ng/mL and the “Concentration QC-High” value ([1]; −80° C. Storage) was 84.4 ng/mL and 81.2 ng/mL and 76.9 ng/mL. For the same molecule, the “Short-term stability in cholestyramine-treated human saliva” value [2] was “up to 2 days”, the “Stability in Treated Human Saliva” value [2] was 2 days and the “% Bias QC-LLOQ” value ([2]; 1 Day at −20° C.) was 7.1%. The “% CV QC-LLOQ” value ([2]; 1 Day at −20° C.) was 2.2%, the “Concentration QC-LLOQ” value ([2]; 1 Day at −20° C.) was 0.529 ng/mL and 0.542 ng/mL and 0.522 ng/mL and 0.548 ng/mL and the “Mean concentration QC-LLOQ” value ([2]; 1 Day at −20° C.) was 0.535 ng/mL. For the same molecule, the “% Bias QC-LLOQ” value ([2]; 2 Days at −20° C.) was 19.6%, the “% CV QC-LLOQ” value ([2]; 2 Days at −20° C.) was 4.1% and the “Concentration QC-LLOQ” value ([2]; 2 Days at −20° C.) was 0.608 ng/mL and 0.589 ng/mL and 0.569 ng/mL and 0.626 ng/mL. The “Mean concentration QC-LLOQ” value ([2]; 2 Days at −20° C.) was 0.598 ng/mL, the “% Bias QC-Mid” value ([2]; 1 Day at −20° C.) was −5.4% and the “% CV QC-Mid” value ([2]; 1 Day at −20° C.) was 0.9%. The “Concentration QC-Mid” value ([2]; 1 Day at −20° C.) was 7.59 ng/mL and 7.63 ng/mL and 7.58 ng/mL and 7.47 ng/mL, the “Mean concentration QC-Mid” value ([2]; 1 Day at −20° C.) was 7.57 ng/mL and the “% Bias QC-Mid” value ([2]; 2 Days at −20° C.) was −1.8%. The “% CV QC-Mid” value ([2]; 2 Days at −20° C.) was 4.0%, the “Concentration QC-Mid” value ([2]; 2 Days at −20° C.) was 7.42 ng/mL and 8.04 ng/mL and 8.12 ng/mL and 7.83 ng/mL and the “Mean concentration QC-Mid” value ([2]; 2 Days at −20° C.) was 7.85 ng/mL. The “% Bias QC-High” value ([2]; 1 Day at −20° C.) was −3.3%, the “% CV QC-High” value ([2]; 1 Day at −20° C.) was 2.9% and the “Concentration QC-High” value ([2]; 1 Day at −20° C.) was 78.3 ng/mL and 79.8 ng/mL and 74.6 ng/mL and 76.6 ng/mL. For the same molecule, the “Mean concentration QC-High” value ([2]; 1 Day at −20° C.) was 77.3 ng/mL, the “% Bias QC-High” value ([2]; 2 Days at −20° C.) was −3.8% and the “% CV QC-High” value ([2]; 2 Days at −20° C.) was 3.9%. For the same molecule, the “Concentration QC-High” value ([2]; 2 Days at −20° C.) was 74.4 ng/mL and 78.6 ng/mL and 74.5 ng/mL and 80.3 ng/mL and the “Mean concentration QC-High” value ([2]; 2 Days at −20° C.) was 77.0 ng/mL.
